Experimental data published in patent US20220041606A1, “POSITIVE ALLOSTERIC MODULATORS OF THE MUSCARINIC ACETYLCHOLINE RECEPTOR M1” (Vanderbilt University, priority 2020, published 2022).

Assays:
human mAChR M1 [1] = target: T1, human mAChR M1 (Homo sapiens, UniProt P11229); test: mAChR M1 cell-based functional assay (calcium mobilization), PAM activity: increase in the EC20 acetylcholine response; conditions: CHO-K1 cells expressing hM1; potentiation of EC20 acetylcholine response
T1 construct: host or cells: CHO-K1 cells (ATCC), stably transfected using Lipofectamine2000
T1 sequence (P11229 1-460): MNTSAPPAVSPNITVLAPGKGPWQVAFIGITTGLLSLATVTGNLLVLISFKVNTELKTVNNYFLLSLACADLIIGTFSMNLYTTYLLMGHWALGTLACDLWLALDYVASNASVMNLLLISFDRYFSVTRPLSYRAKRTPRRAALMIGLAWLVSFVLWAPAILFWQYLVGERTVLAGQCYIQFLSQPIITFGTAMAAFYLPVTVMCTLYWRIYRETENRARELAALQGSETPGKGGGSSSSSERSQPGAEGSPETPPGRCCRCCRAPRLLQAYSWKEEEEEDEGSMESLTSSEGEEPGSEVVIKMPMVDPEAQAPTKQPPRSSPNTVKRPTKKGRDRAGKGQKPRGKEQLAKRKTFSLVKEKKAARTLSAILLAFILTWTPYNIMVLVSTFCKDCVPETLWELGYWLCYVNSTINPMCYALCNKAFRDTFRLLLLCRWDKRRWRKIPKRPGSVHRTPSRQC
Outline: (§1)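 Fluorescence ratio calcium read-out (Fluo-4 AM, FDSS 6000) in human M1-expressing CHO-K1 cells. Agonist activity taken as concentration-dependent rise after compound addition; potentiation as enhancement of a subsequent EC20 acetylcholine challenge. Curves from 11-point threefold dilutions fitted by four-parameter logistic; Emax expressed versus acetylcholine maximum.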

human mAChR M1 [2] = target: T1, human mAChR M1; test: mAChR M1 cell-based functional assay (calcium mobilization), agonist activity upon compound addition; conditions: CHO-K1 cells expressing hM1; for EC50: compound alone, before acetylcholine addition; for Emax: relative to the maximum for acetylcholine
Outline: as §1

EC50 (human mAChR M1 [1]) | Emax (human mAChR M1 [1]) | EC50 (human mAChR M1 [2]) | Emax (human mAChR M1 [2]) | Compound
≥ 10000 nM | 41% | > 10 µM | < 5% | Cc1cn2c(=O)n(Cc3ccc(-c4cnn(C)c4)cc3F)cc(C(=O)N[C@H]3CCCC[C@@H]3O)c2n1 [Compound B24, 6-(2-fluoro-4-(1-methyl-1H-pyrazol-4-yl)benzyl)-N-((1S,2S)-2-hydroxycyclohexyl)-2-methyl-5-oxo-5,6-dihydroimidazo[1,2-c]pyrimidine-8-carboxamide]
900 nM | 59% | > 10 µM | < 5% | Cn1cc2c(-c3cc(F)c(Cn4cc(C(=O)N[C@H]5CCC[C@@H]5O)c5nccn5c4=O)c(F)c3)cccc2n1 [Compound B21, 6-(2,6-difluoro-4-(2-methyl-2H-indazol-4-yl)benzyl)-N-((1S,2S)-2-hydroxycyclopentyl)-5-oxo-5,6-dihydroimidazo[1,2-c]pyrimidine-8-carboxamide]
5890 nM | 27% | > 10 µM | < 5% | Cc1cn2c(=O)n(Cc3c(F)cc(-c4cccc5nn(C)cc45)cc3F)cc(C(=O)N[C@H]3CCCC[C@@H]3O)c2n1 [Compound B30, 6-(2,6-difluoro-4-(2-methyl-2H-indazol-4-yl)benzyl)-N-((1S,2S)-2-hydroxycyclohexyl)-2-methyl-5-oxo-5,6-dihydroimidazo[1,2-c]pyrimidine-8-carboxamide]
> 10000 nM | 57% | > 10 µM | < 5% | O=C(N[C@H]1CCOC[C@@H]1O)c1cn(Cc2ccc(-n3cccn3)cc2)c(=O)c2ccoc12 [Compound D2, 5-(4-(1H-pyrazol-1-yl)benzyl)-N-((3R,4S)-3-hydroxytetrahydro-2H-pyran-4-yl)-4-oxo-4,5-dihydrofuro[3,2-c]pyridine-7-carboxamide]
4520 nM | 69% | > 10 µM | < 5% | Cn1cc2c(-c3cc(F)c(Cn4cc(C(=O)N[C@H]5CCOC[C@@H]5O)c5sccc5c4=O)c(F)c3)cccc2n1 [Compound D30, 5-(2,6-difluoro-4-(2-methyl-2H-indazol-4-yl)benzyl)-N-((3R,4S)-3-hydroxytetrahydro-2H-pyran-4-yl)-4-oxo-4,5-dihydrothieno[3,2-c]pyridine-7-carboxamide]
≥ 10000 nM | 30% | > 10 µM | < 5% | Cc1cn2c(=O)n(Cc3ccc(-n4cccn4)cc3)cc(C(=O)N[C@H]3CCOC[C@@H]3O)c2n1 [Compound B27, 6-(4-(1H-pyrazol-1-yl)benzyl)-N-((3R,4S)-3-hydroxytetrahydro-2H-pyran-4-yl)-2-methyl-5-oxo-5,6-dihydroimidazo[1,2-c]pyrimidine-8-carboxamide]

Continued, compound first:

Compound | EC50 (human mAChR M1 [1]) | Emax (human mAChR M1 [1]) | EC50 (human mAChR M1 [2]) | Emax (human mAChR M1 [2])
Cn1ccc(-c2ccc(Cn3cc(C(=O)N[C@H]4CCCC[C@@H]4O)c4nccnc4c3=O)c(F)c2)n1 [Compound A55, 6-(2-fluoro-4-(1-methyl-1H-pyrazol-3-yl)benzyl)-N-((1S,2S)-2-hydroxycyclohexyl)-5-oxo-5,6-dihydropyrido[3,4-b]pyrazine-8-carboxamide] | 7900 nM | 67% | > 10 µM | 12%
Cn1cc2c(-c3cc(F)c(Cn4cc(C(=O)NCC(O)C(F)(F)F)c5nccnc5c4=O)c(F)c3)cccc2n1 (stereo not drawn) [Compound A74, 6-(2,6-difluoro-4-(2-methyl-2H-indazol-4-yl)benzyl)-5-oxo-N-(3,3,3-trifluoro-2-hydroxypropyl)-5,6-dihydropyrido[3,4-b]pyrazine-8-carboxamide] | 3810 nM | 53% | > 10 µM | < 5%
Cn1cc(-c2ccc(Cn3cc(C(=O)N[C@H]4CCC[C@@H]4O)c4nccnc4c3=O)c(F)c2)cn1 [Compound A79, 6-(2-fluoro-4-(1-methyl-1H-pyrazol-4-yl)benzyl)-N-((1S,2S)-2-hydroxycyclopentyl)-5-oxo-5,6-dihydropyrido[3,4-b]pyrazine-8-carboxamide] | ≥ 10000 nM | 51% | > 10 µM | < 5%
O=C(N[C@H]1CCCC[C@@H]1O)c1cn(Cc2ccc(-c3cscn3)cc2)c(=O)c2cccnc12 [Compound A59, N-((1S,2S)-2-hydroxycyclohexyl)-5-oxo-6-(4-(thiazol-4-yl)benzyl)-5,6-dihydro-1,6-naphthyridine-8-carboxamide] | 420 nM | 45% | > 10 µM | < 5%
Cn1cc2c(-c3cc(F)c(Cn4cc(C(=O)N[C@H]5CCCC[C@@H]5O)c5ncccc5c4=O)c(F)c3)cccc2n1 [Compound A22, 6-(2,6-difluoro-4-(2-methyl-2H-indazol-4-yl)benzyl)-N-((1S,2S)-2-hydroxycyclohexyl)-5-oxo-5,6-dihydro-1,6-naphthyridine-8-carboxamide] | 52 nM | 67% | > 10 µM | < 5%
Cc1cncc(-c2cc(F)c(Cn3cc(C(=O)N[C@H]4CCCC[C@@H]4O)c4ncccc4c3=O)c(F)c2)c1 [Compound A43, 6-(2,6-difluoro-4-(5-methylpyridin-3-yl)benzyl)-N-((1S,2S)-2-hydroxycyclohexyl)-5-oxo-5,6-dihydro-1,6-naphthyridine-8-carboxamide] | 640 nM | 51% | > 10 µM | < 5%
Cc1ccc(-c2cc(F)c(Cn3cc(C(=O)N[C@H]4CCOC[C@@H]4O)c4ncccc4c3=O)c(F)c2)cn1 [Compound A34, 6-(2,6-difluoro-4-(6-methylpyridin-3-yl)benzyl)-N-((3R,4S)-3-hydroxytetrahydro-2H-pyran-4-yl)-5-oxo-5,6-dihydro-1,6-naphthyridine-8-carboxamide] | 620 nM | 65% | 2.88 µM | 12%
O=C(N[C@H]1CCOC[C@@H]1O)c1cn(Cc2ccc(-c3cscn3)cc2)c(=O)c2cccnc12 [Compound A57, N-((3R,4S)-3-hydroxytetrahydro-2H-pyran-4-yl)-5-oxo-6-(4-(thiazol-4-yl)benzyl)-5,6-dihydro-1,6-naphthyridine-8-carboxamide] | 1150 nM | 68% | > 10 µM | 25%
Cn1ccc(-c2ccc(Cn3cc(C(=O)N[C@H]4CCCC[C@@H]4O)c4ncccc4c3=O)c(F)c2)n1 [Compound A2, 6-(2-fluoro-4-(1-methyl-1H-pyrazol-3-yl)benzyl)-N-((1S,2S)-2-hydroxycyclohexyl)-5-oxo-5,6-dihydro-1,6-naphthyridine-8-carboxamide] | 730 nM | 91% | > 10 µM | < 5%
Cn1cc2c(-c3cc(F)c(Cn4cc(C(=O)N[C@H]5CCCCC[C@@H]5O)c5nccnc5c4=O)c(F)c3)cccc2n1 [Compound A67, 6-(2,6-difluoro-4-(2-methyl-2H-indazol-4-yl)benzyl)-N-((1S,2S)-2-hydroxycycloheptyl)-5-oxo-5,6-dihydropyrido[3,4-b]pyrazine-8-carboxamide] | 620 nM | 77% | 5 µM | 46%
Cn1cc(-c2ccc(Cn3cc(C(=O)N[C@H]4CCCCC[C@@H]4O)c4ncccc4c3=O)c(F)c2)cn1 [Compound A24, 6-(2-fluoro-4-(1-methyl-1H-pyrazol-4-yl)benzyl)-N-((1S,2S)-2-hydroxycycloheptyl)-5-oxo-5,6-dihydro-1,6-naphthyridine-8-carboxamide] | 350 nM | 69% | 6.12 µM | 16%
Cn1cc(-c2ccc(Cn3cc(C(=O)N[C@H]4CCC[C@@H]4O)c4ncccc4c3=O)cn2)cn1 [Compound A17, N-((1S,2S)-2-hydroxycyclopentyl)-6-((6-(1-methyl-1H-pyrazol-4-yl)pyridin-3-yl)methyl)-5-oxo-5,6-dihydro-1,6-naphthyridine-8-carboxamide] | ≥ 10000 nM | 55% | > 10 µM | < 5%
Cn1cc2c(-c3cc(F)c(Cn4cc(C(=O)NC5CCOCC5)c5nccnc5c4=O)c(F)c3)cccc2n1 [Compound A70, 6-(2,6-difluoro-4-(2-methyl-2H-indazol-4-yl)benzyl)-5-oxo-N-(tetrahydro-2H-pyran-4-yl)-5,6-dihydropyrido[3,4-b]pyrazine-8-carboxamide] | 5500 nM | 45% | > 10 µM | < 5%
Cn1cc(-c2ccc(Cn3cc(C(=O)N[C@H]4CCC[C@@H]4O)c4ncccc4c3=O)c(F)c2)cn1 [Compound A8, 6-(2-fluoro-4-(1-methyl-1H-pyrazol-4-yl)benzyl)-N-((1S,2S)-2-hydroxycyclopentyl)-5-oxo-5,6-dihydro-1,6-naphthyridine-8-carboxamide] | 1290 nM | 83% | > 10 µM | < 5%
Cn1cc(-c2ccc(Cn3cc(C(=O)N[C@H]4CCOC[C@@H]4O)c4ncccc4c3=O)cc2)cn1 [Compound A58, N-((3R,4S)-3-hydroxytetrahydro-2H-pyran-4-yl)-6-(4-(1-methyl-1H-pyrazol-4-yl)benzyl)-5-oxo-5,6-dihydro-1,6-naphthyridine-8-carboxamide] | 370 nM | 68% | 5.27 µM | 40%
